The text below walks through data of patent US20220324835A1 (Nurix Therapeutics, Inc., priority 2018, published 2022).

The subject of one assay is primary human NK cells. Description: NK cell activation assessed by cytokine secretion (coculture with K562 NucRed target cells). Format: cell-based. The note with it: for fold induction at 0.625 µM: 0.625 μM compound; for fold induction at 2.5 µM: 2.5 μM compound. The gist of the method: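 Primary NK cells from donor PBMC, IL-2 (60 ng/mL) overnight, then Cbl-b inhibitor (e.g. 10, 1 or 0.1 μM; DMSO <0.1%) for 1 h before 6 h coculture with K562 NucRed at effector:target ratios such as 5:1, 1:1 or 1:5. Supernatant IFNγ, TNFα, MIP1β measured by ELISA or Luminex; fold change over inhibitor-free baseline, >2.0-fold positive.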

For assay [1], the system named is T-cell. The assay can be described thus: IL-2 secretion from T-cells stimulated with anti-CD3 antibody alone (Biological Example 2). Format: cell-based, human. The note with it: T-cell, read-out: IL-2 secretion Anti-CD3 stimulation; for fold induction at 1 µM: 1 μM Cbl-b inhibitor; for fold induction at 8 µM: 8 μM Cbl-b inhibitor.
Assay [2] deals with T-cell. The assay can be described thus: CD25 cell surface staining on T-cells stimulated with anti-CD3 antibody alone (Biological Example 2). Format: cell-based, human. The note with it: T-cell, read-out: CD25 staining Anti-CD3 stimulation; for fold induction at 1 µM: 1 μM Cbl-b inhibitor; for fold induction at 8 µM: 8 μM Cbl-b inhibitor.
[3] abbreviates: K562, NK cells cocultured with K562 NucRed, 1:1 E/T, read-out: IFNγ secretion, fold change over baseline.
Setting [4] is: K562, NK cells cocultured with K562 NucRed, 1:1 E/T, read-out: TNFα secretion, fold change over baseline.
Setting [5] is: K562, NK cells cocultured with K562 NucRed, 1:1 E/T, 10 μM compound, read-out: IFNγ secretion, fold change over baseline.
[6] abbreviates: K562, NK cells cocultured with K562 NucRed, 1:1 E/T, 10 μM compound, read-out: TNFα secretion, fold change over baseline.
[7] abbreviates: fold change over baseline, primary human total T-cells.
Where [8] appears, read: K562, 1:1 E/T, read-out: IFNγ secretion.
[9] abbreviates: K562, 1:1 E/T, read-out: MIP1β secretion.
The mark [10] stands for this setting: K562, 1:1 E/T, read-out: TNFα secretion.
Setting [11] is: K562, 1:1 E/T, 10 μM, read-out: IFNγ secretion.
Setting [12] is: K562, 1:1 E/T, 10 μM, read-out: MIP1β secretion.
The mark [13] stands for this setting: K562, 1:1 E/T, 10 μM, read-out: TNFα secretion.
Setting [14] is: K562, 5:1 E/T, read-out: IFNγ secretion.
The mark [15] stands for this setting: K562, 5:1 E/T, read-out: MIP1β secretion.
[16] abbreviates: K562, 5:1 E/T, read-out: TNFα secretion.
Setting [17] is: K562, 5:1 E/T, 10 μM, read-out: IFNγ secretion.
[18] abbreviates: K562, 5:1 E/T, 10 μM, read-out: MIP1β secretion.
Setting [19] is: K562, 5:1 E/T, 10 μM, read-out: TNFα secretion.
The mark [20] stands for this setting: Homo sapiens, fold change over baseline (anti-CD3/anti-CD28 stimulated T-cells without inhibitor).

Read-outs that look alike come from different tables or passages of the source.

As to `C[C@H](Sc1nncn1C)c1cccc(NC(=O)c2cc(C(=O)N3CC[C@H](O)C3)ccn2)c1` [Compound 140, 4-[[(3S)-3-hydroxypyrrolidin-1-yl]carbonyl]-N-[3-[(1S)-1-[(4-methyl-4H-1,2,4-triazol-3-yl)sulfanyl]ethyl]phenyl]pyridine-2-carboxamide], the fold induction at 0.625 µM with primary human NK cells (setting [3]) and in the assay on primary human NK cells (setting [4]) was under 1 throughout. Moreover, the fold induction at 2.5 µM in the assay with primary human NK cells (setting [3]) and in the assay on primary human NK cells (setting [4]) was under 1 throughout. The fold induction at 10 µM was 1.01 to 2 in the assay with primary human NK cells (setting [5]) and under 1 in the assay on primary human NK cells (setting [6]). The fold induction at 1 µM was under 0.05 in the assay with T-cell [1] (setting [7]) and 0.601 to 0.8 in the assay with T-cell [2] (setting [7]). In addition, the fold induction at 8 µM in the assay on T-cell [1] (setting [7]) is under 0.05; in the assay with T-cell [2] (setting [7]) it was 0.801 to 1.
Consider `C[C@H](Cc1nncn1C)c1cccc(NC(=O)c2ccnc(C(F)(F)F)n2)c1` [Compound 187, (R)-N-(3-(1-(4-methyl-4H-1,2,4-triazol-3-yl)propan-2-yl)phenyl)-2-(trifluoromethyl)pyrimidine-4-carboxamide], for which the fold induction at 1 µM is 1.01 to 2 in the assay on primary human NK cells (setting [8]); 1.01 to 2 in the assay with primary human NK cells (setting [9]); under 1 in the assay on primary human NK cells (setting [10]); 2.01 to 5 in the assay on primary human NK cells (setting [14]); 1.01 to 2 in the assay with primary human NK cells (setting [15]); 2.01 to 5 in the assay on primary human NK cells (setting [16]). Moreover, the fold induction at 1 µM was over 0.201 in the assay on T-cell [1] (setting [7]) and 0.801 to 1 in the assay on T-cell [2] (setting [7]). The fold induction at 10 µM in the assay with primary human NK cells (setting [11]) was 2.01 to 5; with primary human NK cells (setting [12]), 2.01 to 5; with primary human NK cells (setting [13]), 2.01 to 5; in the assay with primary human NK cells (setting [17]) it was over 5; with primary human NK cells (setting [18]), 2.01 to 5; in the assay with primary human NK cells (setting [19]), over 5. Besides, the fold induction at 8 µM was over 0.201 in the assay on T-cell [1] (setting [7]) and over 1 in the assay with T-cell [2] (setting [7]).
Consider `C[C@H](Cc1nncn1C)c1cccc(NC(=O)c2cccc(CCO)n2)c1` [Compound 202, 6-(2-hydroxyethyl)-N-[3-[(2R)-1-(4-methyl-4H-1,2,4-triazol-3-yl)propan-2-yl]phenyl]pyridine-2-carboxamide], for which the values for the fold induction at 0.625 µM in the assay with primary human NK cells (setting [3]) and in the assay on primary human NK cells (setting [4]) were 1.01 to 2 and under 1, respectively. The fold induction at 2.5 µM with primary human NK cells (setting [3]) and with primary human NK cells (setting [4]) was 1.01 to 2 in each case. Also, the values for the fold induction at 10 µM in the assay with primary human NK cells (setting [5]) and in the assay on primary human NK cells (setting [6]) were 2.01 to 5 and 1.01 to 2, respectively. Moreover, the values for the fold induction at 1 µM in the assay on T-cell [1] (setting [7]) and in the assay on T-cell [2] (setting [7]) were 0.051 to 0.1 and under 0.6, respectively. For the same molecule, the fold induction at 8 µM in the assay on T-cell [1] (setting [7]) fell in the range of 0.151 to 0.2; in the assay on T-cell [2] (setting [7]), 0.801 to 1.
Turning to `C[C@H](Cc1nncn1C)c1cccc(N2Cc3c(ccnc3C3CC3)C2=O)c1` [Compound 257, 4-cyclopropyl-2-[3-[(1R)-1-methyl-2-(4-methyl-1,2,4-triazol-3-yl)ethyl]phenyl]-3H-pyrrolo[3,4-c]pyridin-1-one], the fold induction at 0.625 µM with primary human NK cells (setting [3]) and in the assay with primary human NK cells (setting [4]) was 1.01 to 2 throughout. The results for the fold induction at 2.5 µM in the assay with primary human NK cells (setting [3]) and with primary human NK cells (setting [4]) were 2.01 to 5 and 1.01 to 2, respectively. Besides, the fold induction at 10 µM in the assay on primary human NK cells (setting [5]) and with primary human NK cells (setting [6]) was 2.01 to 5 throughout. Also, the fold induction at 1 µM fell in the range of 0.151 to 0.2 with T-cell [1] (setting [7]) and 0.601 to 0.8 with T-cell [2] (setting [7]). Further, the figures for the fold induction at 8 µM in the assay on T-cell [1] (setting [7]) and with T-cell [2] (setting [7]) were over 0.201 and over 1, respectively.
In the case of `Cn1cnnc1[C@@H]1C[C@@H]1c1cccc(N2Cc3c(cccc3C(F)(F)F)C2=O)c1` [Compound 282, 2-(3-((1S,2R)-2-(4-methyl-4H-1,2,4-triazol-3-yl)cyclopropyl)phenyl)-4-(trifluoromethyl)isoindolin-1-one], the fold induction at 0.625 µM with primary human NK cells (setting [3]) and with primary human NK cells (setting [4]) was 1.01 to 2 each time. The fold induction at 2.5 µM in the assay on primary human NK cells (setting [3]) and in the assay on primary human NK cells (setting [4]) was 1.01 to 2 in each case. For the same molecule, the fold induction at 10 µM in the assay on primary human NK cells (setting [5]) and in the assay with primary human NK cells (setting [6]) was 2.01 to 5 each time. The fold induction at 1 µM with T-cell [1] (setting [7]) was under 0.05; with T-cell [2] (setting [7]) it was 0.601 to 0.8. In addition, the fold induction at 8 µM with T-cell [1] (setting [7]) is under 0.05; in the assay on T-cell [2] (setting [7]) it was over 1.
Regarding `Cn1cnnc1C(F)(F)[C@](C)(F)c1cccc(N2Cc3c(cccc3C(F)(F)F)C2=O)c1` [Compound 296a, (R)-2-(3-(1,1,2-trifluoro-1-(4-methyl-4H-1,2,4-triazol-3-yl)propan-2-yl)phenyl)-4-(trifluoromethyl)isoindolin-1-one], the fold induction at 1 µM in the assay on primary human NK cells (setting [8]) is 1.01 to 2; in the assay on primary human NK cells (setting [9]) it was under 1; in the assay on primary human NK cells (setting [10]) it was under 1; in the assay on primary human NK cells (setting [14]), under 1; in the assay with primary human NK cells (setting [15]), under 1; in the assay with primary human NK cells (setting [16]), under 1. The fold induction at 1 µM was 0.151 to 0.2 in the assay with T-cell [1] (setting [7]) and 0.601 to 0.8 with T-cell [2] (setting [7]). Besides, the fold induction at 10 µM with primary human NK cells (setting [11]) was 2.01 to 5; in the assay on primary human NK cells (setting [12]), under 1; in the assay with primary human NK cells (setting [13]) it was 1.01 to 2; with primary human NK cells (setting [17]), 1.01 to 2; with primary human NK cells (setting [18]), under 1; in the assay with primary human NK cells (setting [19]) it was under 1. The fold induction at 8 µM with T-cell [1] (setting [7]) is over 0.201; with T-cell [2] (setting [7]) it was over 1.
As to `Cn1cnnc1[C@@H]1C[C@@H]1c1cccc(N2Cc3c(ccnc3C(F)(F)F)C2=O)c1` [Compound 369, 2-{3-[(1S,2R)-2-(4-methyl-4H-1,2,4-triazol-3-yl)cyclopropyl]phenyl}-4-(trifluoromethyl)-1H,2H,3H-pyrrolo[3,4-c]pyridin-1-one], the fold induction at 0.625 µM in the assay with primary human NK cells (setting [3]) and in the assay with primary human NK cells (setting [4]) was under 1 in each case. In addition, the fold induction at 2.5 µM with primary human NK cells (setting [3]) is 1.01 to 2; in the assay with primary human NK cells (setting [4]), under 1. In addition, the fold induction at 10 µM lay in the range of 2.01 to 5 in the assay with primary human NK cells (setting [5]) and 1.01 to 2 in the assay on primary human NK cells (setting [6]).
In the case of `Cc1cc2c(c(C3CC3)n1)CN(c1cccc([C@H](C)Cc3nncn3C)c1)C2=O` [Compound 372, 4-cyclopropyl-6-methyl-2-{3-[(2R)-1-(4-methyl-4H-1,2,4-triazol-3-yl)propan-2-yl]phenyl}-1H,2H,3H-pyrrolo[3,4-c]pyridin-1-one], the fold induction at 0.625 µM was 1.01 to 2 in the assay on primary human NK cells (setting [3]) and under 1 in the assay with primary human NK cells (setting [4]). Also, the fold induction at 2.5 µM with primary human NK cells (setting [3]) is 1.01 to 2; in the assay with primary human NK cells (setting [4]), under 1. Besides, the fold induction at 10 µM in the assay with primary human NK cells (setting [5]) was in the range of 2.01 to 5; in the assay with primary human NK cells (setting [6]), 1.01 to 2.
Turning to `CNCc1ccc(C(=O)Nc2cccc([C@H](C)Cc3nncn3C)c2)nc1C1CC1` [Compound 376, (R)-6-cyclopropyl-N-(3-(1-(4-methyl-4H-1,2,4-triazol-3-yl)propan-2-yl)phenyl)-5-((methylamino)methyl)picolinamide], the fold induction at 0.625 µM with primary human NK cells (setting [3]) and in the assay with primary human NK cells (setting [4]) was 1.01 to 2 in each case. The fold induction at 2.5 µM in the assay on primary human NK cells (setting [3]) and in the assay with primary human NK cells (setting [4]) was 1.01 to 2 throughout. Also, the fold induction at 10 µM with primary human NK cells (setting [5]) and in the assay with primary human NK cells (setting [6]) was 2.01 to 5 each time.
Take `C[C@H](Cc1nncn1C)c1cc(-c2cn[nH]c2)nc(N2Cc3c(cccc3C(F)(F)F)C2=O)c1` [Example 684, (R)-2-(4-(1-(4-methyl-4H-1,2,4-triazol-3-yl)propan-2-yl)-6-(1H-pyrazol-4-yl)pyridin-2-yl)-4-(trifluoromethyl)isoindolin-1-one]: the fold induction at 1 µM in the assay with T-cell [1] (setting [20]) is 0.051 to 0.1; in the assay with T-cell [2] (setting [20]), under 0.6.
